Measurements from patent US20230407243A1, “GENETIC PLATFORM TO INVESTIGATE THE FUNCTIONS OF BACTERIAL DRUG EFFLUX PUMPS” (priority 2022, published 2023).
Like-named read-outs stand apart in the source and are kept apart here.

How the values were obtained:
Type in all cases: cell-based, Escherichia coli
EKO-35 araC::acrBD408A = assay: MIC susceptibility profiling, efflux platform; details: for Fold change of MICs: EKO-35 araC::acrBD408A compared to EKO-35
Method in brief: (§1)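 Broth MIC in cation-adjusted Mueller-Hinton (MHB II) following twofold compound titration in duplicate. Bacteria were prepared at OD600 ~1.0 in PBS and diluted 1/2000. Endpoint OD600 after 18 h at 37 °C was corrected using the pre-incubation reading.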

EKO-35 araC::acrB = assay: MIC susceptibility profiling, efflux platform; details: for Fold change of MICs: EKO-35 araC::acrB compared to EKO-35
Method in brief: as §1

EKO-35 araC::acrD = assay: MIC susceptibility profiling, efflux platform; details: for Fold change of MICs: EKO-35 araC::acrD compared to EKO-35
Method in brief: as §1

EKO-35 araC::acrEF = assay: MIC susceptibility profiling, efflux platform; details: for Fold change of MICs: EKO-35 araC::acrEF compared to EKO-35
Method in brief: as §1

EKO-35 araC::emrAB = assay: MIC susceptibility profiling, efflux platform; details: for Fold change of MICs: EKO-35 araC::emrAB compared to EKO-35
Method in brief: as §1

EKO-35 araC::emrKY = assay: MIC susceptibility profiling, efflux platform; details: for Fold change of MICs: EKO-35 araC::emrKY compared to EKO-35
Method in brief: as §1

EKO-35 araC::macAB = assay: MIC susceptibility profiling, efflux platform; details: for Fold change of MICs: EKO-35 araC::macAB compared to EKO-35
Method in brief: as §1

EKO-35 araC::mdtBC = assay: MIC susceptibility profiling, efflux platform; details: for Fold change of MICs: EKO-35 araC::mdtBC compared to EKO-35
Method in brief: as §1

EKO-35 araC::mdtEF = assay: MIC susceptibility profiling, efflux platform; details: for Fold change of MICs: EKO-35 araC::mdtEF compared to EKO-35
Method in brief: as §1

[1] = system: EKO-35 araC::mexCD (MexCD from P. aeruginosa); assay: MIC susceptibility profiling, efflux platform; details: for Fold change of MICs: EKO-35 araC::mexCD compared to EKO-35
Method in brief: as §1

wild-type (WT) K-12-Pore = assay: microbe, parasite or virus in culture; details: for MIC: Escherichia coli
Method in brief: (§2)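 Strains carry the fhuA ΔC/Δ4L pore integrated between glmS and pstS under a constitutive promoter, with pore activity checked by vancomycin susceptibility. Overnight LB cultures were adjusted in PBS pH 7.4 to OD600 ~1.0 and diluted 1/2000 into MHB II. 2-fold compound titrations were read by OD600 after 18 h at 37 °C.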

ΔtolC-Pore = assay: microbe, parasite or virus in culture; details: for Minimum inhibitory concentration (MIC), Pore ΔtolC: Table 10, with pore
Method in brief: as §2

EKO-35-Pore = assay: MIC susceptibility profiling, porinated strain; details: for Fold changes of MICs: EKO-35-Pore compared to EKO-35-Pore (reference)
Method in brief: as §2

EKO-35 araC::acrB Pore = assay: MIC susceptibility profiling, porinated efflux platform; details: for Fold changes of MICs: EKO-35 araC::acr-B Pore compared to EKO-35-Pore
Method in brief: as §2

[2] = system: EKO-35 araC::acrBD408A Pore; assay: as above; details: for Fold changes of MICs: EKO-35 araC::acrBD408A Pore compared to EKO-35-Pore
Method in brief: as §2

EKO-35 araC::acrD Pore = assay: as above; details: for Fold changes of MICs: EKO-35 araC::acrD Pore compared to EKO-35-Pore
Method in brief: as §2

EKO-35 araC::acrEF Pore = assay: as above; details: for Fold changes of MICs: EKO-35 araC::acrEF Pore compared to EKO-35-Pore
Method in brief: as §2

EKO-35 araC::emrAB Pore = assay: as above; details: for Fold changes of MICs: EKO-35 araC::emrAB Pore compared to EKO-35-Pore
Method in brief: as §2

[3] = Table 13B, non-porinated, technical duplicate
[4] = Table 13A, non-porinated, technical duplicate
[5] = Table 10, with pore, technical duplicate
[6] = Table 14A, porinated, technical duplicate

Structure (SMILES) | Fold change of MICs (EKO-35 araC::acrBD408A) [fold] | Fold change of MICs (EKO-35 araC::acrB) [fold] | Fold change of MICs (EKO-35 araC::acrD) [fold] | Fold change of MICs (EKO-35 araC::acrEF) [fold] | Fold change of MICs (EKO-35 araC::emrAB) [fold] | Fold change of MICs (EKO-35 araC::emrKY) [fold] | Fold change of MICs (EKO-35 araC::macAB) [fold] | Fold change of MICs (EKO-35 araC::mdtBC) [fold] | Fold change of MICs (EKO-35 araC::mdtEF) [fold] | Fold change of MICs [1] [fold] | Minimum inhibitory concentration (MIC), Pore ΔtolC (ΔtolC-Pore; technical duplicate) [µg/mL] | Fold changes of MICs (EKO-35-Pore) [fold] | Fold changes of MICs (EKO-35 araC::acrB Pore) [fold] | Fold changes of MICs [2] [fold] | Fold changes of MICs (EKO-35 araC::acrD Pore) [fold] | Fold changes of MICs (EKO-35 araC::acrEF Pore) [fold] | Fold changes of MICs (EKO-35 araC::emrAB Pore) [fold] | further results
COc1cc(Cc2cnc(N)nc2N)cc(OC)c1OC [trimethoprim] | 0 | 8 | 2 | 4 | 1 | 1 | 1 | 1 | 2 | 2 | 0.049 | 1 | 4 | 1 | 1 | 1 | 2 | MIC (EKO-35 araC::acrBD408A; Escherichia coli, Table 13B, non-porinated, technical duplicate, read-out: Minimum Inhibitory Concentration, EKO-35 araC::acrBD408A): 0.098 µg/mL; MIC (EKO-35 araC::acrB; Escherichia coli, Table 13A, non-porinated, technical duplicate, read-out: Minimum Inhibitory Concentration, EKO-35 araC::acrB): 1.56 µg/mL; MIC (EKO-35 araC::acrEF; Escherichia coli, Table 13A, non-porinated, technical duplicate, read-out: Minimum Inhibitory Concentration, EKO-35 araC::acrEF): 0.781 µg/mL; MIC ([1]; Table 13B, non-porinated, technical duplicate, read-out: Minimum Inhibitory Concentration, EKO-35 araC::mexCD): 0.391 µg/mL; MIC (wild-type (WT) K-12-Pore; read-out: Minimum inhibitory concentration (MIC), Pore K-12): 0.391 µg/mL; MIC (wild-type (WT) K-12-Pore; read-out: Minimum inhibitory concentration, K-12 (WT)-Pore): 0.391 µg/mL; MIC (ΔtolC-Pore; Escherichia coli, 18 h, read-out: Minimum inhibitory concentration, ΔtolC-Pore): 0.049 µg/mL; MIC (EKO-35 araC::acrB Pore; Escherichia coli, Table 14A, porinated, technical duplicate, read-out: Minimum inhibitory concentration, EKO-35 araC::acrB Pore): 0.781 µg/mL; efflux pump-mediated resistance vs EKO-35-Pore (EKO-35 araC::acrEF Pore; AcrEF with the pore): impacted the ability of AcrEF to confer resistance
N#Cc1ccc(-c2c(NC(=O)C(Cl)Cl)oc(-c3cccs3)c2C#N)cc1 [compound 2] | 1 | 1 | 1 | 1 | 1 | 1 | 1 | 1 | 1 | 1 | 1.25 | 1 | 1 | 1 | 1 | 1 | 1 | Minimum Inhibitory Concentration, EKO-35 araC::acrBD408A (EKO-35 araC::acrBD408A; [3]): 320 µg/mL; Minimum Inhibitory Concentration, EKO-35 araC::acrB (EKO-35 araC::acrB; [4]): 320 µg/mL; Minimum Inhibitory Concentration, EKO-35 araC::acrD (EKO-35 araC::acrD; [4]): 320 µg/mL; Minimum Inhibitory Concentration, EKO-35 araC::acrEF (EKO-35 araC::acrEF; [4]): 320 µg/mL; Minimum Inhibitory Concentration, EKO-35 araC::emrAB (EKO-35 araC::emrAB; [3]): 320 µg/mL; Minimum Inhibitory Concentration, EKO-35 araC::emrKY (EKO-35 araC::emrKY; [3]): 320 µg/mL; Minimum Inhibitory Concentration, EKO-35 araC::macAB (EKO-35 araC::macAB; [3]): 320 µg/mL; Minimum Inhibitory Concentration, EKO-35 araC::mdtBC (EKO-35 araC::mdtBC; [3]): 320 µg/mL; Minimum Inhibitory Concentration, EKO-35 araC::mdtEF (EKO-35 araC::mdtEF; [4]): 320 µg/mL; Minimum Inhibitory Concentration, EKO-35 araC::mexCD [1, 3]: 320 µg/mL; Minimum inhibitory concentration (MIC), Pore K-12 (wild-type (WT) K-12-Pore; [5]): 320 µg/mL; Minimum inhibitory concentration, K-12 (WT)-Pore (wild-type (WT) K-12-Pore; [6]): 320 µg/mL; Minimum inhibitory concentration, ΔtolC-Pore (ΔtolC-Pore; [6]): 1.25 µg/mL; Minimum inhibitory concentration (MIC), Pore EKO-35 (EKO-35-Pore; [5]): 320 µg/mL; Minimum inhibitory concentration, EKO-35-Pore (EKO-35-Pore; [6]): 320 µg/mL; Minimum inhibitory concentration, EKO-35 araC::acrB Pore (EKO-35 araC::acrB Pore; [6]): 320 µg/mL; Minimum inhibitory concentration ([2]; EKO-35 araC::acrBD408A Pore, technical duplicate): 320 µg/mL; Minimum inhibitory concentration, EKO-35 araC::acrD Pore (EKO-35 araC::acrD Pore; [6]): 320 µg/mL; Minimum inhibitory concentration, EKO-35 araC::acrEF Pore (EKO-35 araC::acrEF Pore; [6]): 320 µg/mL; Minimum inhibitory concentration (EKO-35 araC::emrAB Pore; EKO-35 araC::emrAB Pore, technical duplicate): 320 µg/mL
